In PMC1533168 (Environmental Health Perspectives, 1998):
Where “and” joins values, the source holds several entries; their conditions need not be identical. Identical values can stand only once. Like-named read-outs stand apart in the source and are kept apart here.

Legend:
[1] = type: in vivo, human; details: for A2 coefficient, breath elimination model / A1 coefficient, breath elimination model / Breath, 1st compartment half-life, elimination / Breath, 2nd compartment half-life, elimination / Breath, 3rd compartment half-life, elimination: elimination period after 100 ppmv 4 hr inhalation; for Breath model value at t = 0: elimination model; for Breath model value at t = 0 / Breath model value at t = 240: end of 100 ppmv 4 hr inhalation; for Breath model value at t = 240: uptake model; for Breath, 1st compartment half-life, uptake / k1 time constant, breath uptake model: uptake period, 100 ppmv 4 hr inhalation
[2] = cited from earlier work
[3] = type: in vivo, human; details: for Calc:meas ratio of peak blood level: elimination curves
[4] = Controlled chamber inhalation exposure: trichloroethene in venous blood; type: in vivo, human; details: for Blood model value at t = 0 (Blood, meas): elimination model; for Blood model value at t = 0 (Blood, meas) / Blood model value at t = 240: end of 100 ppmv 4 hr inhalation; for A coefficient (first), blood elimination model / Blood, 1st compartment half-life, elimination / A2 coefficient, blood elimination model: elimination period after 100 ppmv 4 hr inhalation; for Blood model value at t = 240: uptake model; for Blood, 1st compartment half-life, uptake / k1 time constant, blood uptake model: uptake period, 100 ppmv 4 hr inhalation; for k1 time constant, blood uptake model: time in minutes
[5] = all subjects, 100 ppmv 4 hr inhalation and 20 hr purified air
[6] = measured in vitro, ref Fiserova-Bergerova and Diaz (24)
[7] = Subject 108, end of 100 ppmv 4 hr inhalation
[8] = Subject 109, end of 100 ppmv 4 hr inhalation
[9] = Subject 110, end of 100 ppmv 4 hr inhalation
[10] = Subject 208, end of 100 ppmv 4 hr inhalation
[11] = Subject 209, end of 100 ppmv 4 hr inhalation
[12] = Subject 210, end of 100 ppmv 4 hr inhalation
[13] = all individual data point pairs, all subjects

ClC=C(Cl)Cl [trichloroethene]
A2 coefficient, breath elimination model ([1]; Mean ± SE of 6 subjects): 28.67 6.26 micrograms per liter | Breath model value at t = 0 ([1]; Subject 108): 96.6 pg/I | A1 coefficient, breath elimination model ([1]; Subject 108): 76.7 micrograms per liter | A2 coefficient, breath elimination model ([1]; Subject 108): 15.21 micrograms per liter | Breath, 1st compartment half-life, elimination ([1]; Subject 108): 4.40 min | Breath, 2nd compartment half-life, elimination ([1]; Subject 108): 54.15 min | Breath, 3rd compartment half-life, elimination ([1]; Subject 108): 424.98 min | Breath model value at t = 240 ([1]; Subject 108): 105.8 pg/I | Breath, 1st compartment half-life, uptake ([1]; Subject 108): 9.90 min | k1 time constant, breath uptake model ([1]; Subject 108, time in minutes): 0.07004 | Breath model value at t = 0 ([1]; Subject 109): 175.5 pg/I | A1 coefficient, breath elimination model ([1]; Subject 109): 115.8 micrograms per liter | A2 coefficient, breath elimination model ([1]; Subject 109): 53.76 micrograms per liter | Breath, 1st compartment half-life, elimination ([1]; Subject 109): 1.15 min | Breath, 2nd compartment half-life, elimination ([1]; Subject 109): 27.16 min | Breath, 3rd compartment half-life, elimination ([1]; Subject 109): 541.52 min | Breath model value at t = 240 ([1]; Subject 109): 130.3 pg/I | Breath, 1st compartment half-life, uptake ([1]; Subject 109): 9.59 min | k1 time constant, breath uptake model ([1]; Subject 109, time in minutes): 0.07229 | Breath model value at t = 0 ([1]; Subject 110): 162.5 pg/I | A1 coefficient, breath elimination model ([1]; Subject 110): 146.2 micrograms per liter | A2 coefficient, breath elimination model ([1]; Subject 110): 13.41 micrograms per liter | Breath, 1st compartment half-life, elimination ([1]; Subject 110): 4.07 min | Breath, 2nd compartment half-life, elimination ([1]; Subject 110): 88.18 min | Breath, 3rd compartment half-life, elimination ([1]; Subject 110): 1,269.50 min | Breath model value at t = 240 ([1]; Subject 110): 115.2 pg/I | Breath, 1st compartment half-life, uptake ([1]; Subject 110): 39.05 min | k1 time constant, breath uptake model ([1]; Subject 110, time in minutes): 0.01775 | Breath model value at t = 0 ([1]; Subject 208): 129.9 pg/I | A1 coefficient, breath elimination model ([1]; Subject 208): 104.4 micrograms per liter | A2 coefficient, breath elimination model ([1]; Subject 208): 21.21 micrograms per liter | Breath, 1st compartment half-life, elimination ([1]; Subject 208): 0.97 min | Breath, 2nd compartment half-life, elimination ([1]; Subject 208): 29.98 min | Breath, 3rd compartment half-life, elimination ([1]; Subject 208): 396.31 min | Breath model value at t = 240 ([1]; Subject 208): 98.6 pg/I | Breath, 1st compartment half-life, uptake ([1]; Subject 208): 9.92 min | Breath model value at t = 0 ([1]; Subject 209): 161.2 pg/I | A1 coefficient, breath elimination model ([1]; Subject 209): 114.1 micrograms per liter | A2 coefficient, breath elimination model ([1]; Subject 209): 36.96 micrograms per liter | Breath, 1st compartment half-life, elimination ([1]; Subject 209): 2.68 min | Breath, 2nd compartment half-life, elimination ([1]; Subject 209): 21.44 min | Breath, 3rd compartment half-life, elimination ([1]; Subject 209): 262.26 min | Breath model value at t = 240 ([1]; Subject 209): 147.0 pg/I | Breath, 1st compartment half-life, uptake ([1]; Subject 209): 21.42 min | k1 time constant, breath uptake model ([1]; Subject 209, time in minutes): 0.03236 | Uptake curve model plateau coefficient, breath ([1]; Subject 210, Figure 1B): 113 micrograms per liter | k3 time constant, breath elimination model ([1]; Subject 210, Figure 1D, time in minutes): .00061 | Breath model value at t = 0 ([1]; Subject 210): 194.7 pg/I | A1 coefficient, breath elimination model ([1]; Subject 210): 156.8 micrograms per liter and 157 micrograms per liter | A2 coefficient, breath elimination model ([1]; Subject 210): 31.47 micrograms per liter and 31.5 micrograms per liter | Breath, 1st compartment half-life, elimination ([1]; Subject 210): 1.03 min | Breath, 2nd compartment half-life, elimination ([1]; Subject 210): 40.30 min | Breath, 3rd compartment half-life, elimination ([1]; Subject 210): 1,145.89 min | Breath model value at t = 240 ([1]; Subject 210): 113.0 pg/I | Breath, 1st compartment half-life, uptake ([1]; Subject 210): 18.94 min | k1 time constant, breath uptake model ([1]; Subject 210, time in minutes): 0.0366 | Relevant data range for breath samples [1, 5]: <1-150 pg/I | Blood/air partition coefficient [2, 6]: 8.1 | Partition coefficient for lung tissue [2, 6]: 14.0 | Blood/air partition coefficient ([2]; measured in vitro, ref Gargas et al. (22)): 8.11 | Blood/air partition coefficient ([2]; measured in vitro, ref Lindqvist (23)): 15.7 | Blood/breath partition coefficient, accepted literature value ([2]; used in human pharmacokinetic model, ref Allen and Fisher (26)): 9.2 | Pulmonary partition coefficient ([2]; value used, ref Fernandez et al. (25)): 9 | In vivo blood/breath partition coefficient, elimination-only data set ([3]; Mean ± SE of 6 subjects, end of 100 ppmv 4 hr inhalation): 9.69 | Calc:meas ratio of peak blood level ([3]; Subject 108): 0.76 | Blood:breath ratio at end of exposure, calculated from elimination models [3, 7]: 12.11 | Blood:breath ratio at end of exposure, calculated from uptake models [3, 7]: 12.45 | Calc:meas ratio of peak blood level ([3]; Subject 109): 0.75 | Blood:breath ratio at end of exposure, calculated from elimination models [3, 8]: 12.31 | Blood:breath ratio at end of exposure, calculated from uptake models [3, 8]: 14.12 | Calc:meas ratio of peak blood level ([3]; Subject 110): 1.01 | Blood:breath ratio at end of exposure, calculated from elimination models [3, 9]: 9.11 | Blood:breath ratio at end of exposure, calculated from uptake models [3, 9]: 11.96 | Calc:meas ratio of peak blood level ([3]; Subject 208): 0.93 | Blood:breath ratio at end of exposure, calculated from elimination models [3, 10]: 9.89 | Blood:breath ratio at end of exposure, calculated from uptake models [3, 10]: 11.97 | Calc:meas ratio of peak blood level ([3]; Subject 209): 0.90 | Blood:breath ratio at end of exposure, calculated from elimination models [3, 11]: 10.18 | Blood:breath ratio at end of exposure, calculated from uptake models [3, 11]: 10.94 | Calc:meas ratio of peak blood level ([3]; Subject 210): 1.51 | Blood:breath ratio at end of exposure, calculated from elimination models [3, 12]: 6.07 | Blood:breath ratio at end of exposure, calculated from uptake models [3, 12]: 9.99 | Blood/breath regression slope (mean blood/breath ratio), elimination phase [3, 13]: 29.00 | Blood/breath regression slope (mean blood/breath ratio), uptake phase [3, 13]: 10.93 | Inspired trichloroethene excreted through exhalation ([3]; at equilibrium): about 22% | Share of the expired trichloroethene coming from the blood (first) compartment ([3]; elimination phase after 4-hr exposure): about 75% | In vivo blood/breath partition coefficient, overall mean ([3]; experiment time = 0, all subjects, uptake and elimination experiments): 10.8 | Mean time constant for breath relative to its blood counterpart (times as large) ([3]; initial 10 min of elimination, first compartment dominant): 10 | Time constant for breath relative to that for blood (times as large) ([3]; uptake portion of the experiment): about 2.5 | Blood model value at t = 0 (Blood, meas) ([4]; Subject 108): 1,170.1 pg/I and 1,170 pg/I | A coefficient (first), blood elimination model ([4]; Subject 108): 820.7 micrograms per liter | Blood, 1st compartment half-life, elimination ([4]; Subject 108): 23.54 min | Blood model value at t = 240 ([4]; Subject 108): 1,317 pg/I | Blood, 1st compartment half-life, uptake ([4]; Subject 108): 26.60 min | k1 time constant, blood uptake model ([4]; Subject 108): 0.02606 | Blood model value at t = 0 (Blood, meas) ([4]; Subject 109): 2,161.0 pg/I and 2,161 pg/I | A2 coefficient, blood elimination model ([4]; Subject 109): 287.0 micrograms per liter | A coefficient (first), blood elimination model ([4]; Subject 109): 1874 micrograms per liter | Blood, 1st compartment half-life, elimination ([4]; Subject 109): 17.93 min | Blood model value at t = 240 ([4]; Subject 109): 1,839 pg/I | Blood, 1st compartment half-life, uptake ([4]; Subject 109): 64.90 min | k1 time constant, blood uptake model ([4]; Subject 109): 0.01068 | Blood model value at t = 0 (Blood, meas) ([4]; Subject 110): 1,481 pg/I and 1,480.9 pg/I | A2 coefficient, blood elimination model ([4]; Subject 110): 979.1 micrograms per liter | A coefficient (first), blood elimination model ([4]; Subject 110): 501.8 micrograms per liter | Blood, 1st compartment half-life, elimination ([4]; Subject 110): 6.86 min | Blood model value at t = 240 ([4]; Subject 110): 1,377 pg/I | Blood, 1st compartment half-life, uptake ([4]; Subject 110): 45.66 min | k1 time constant, blood uptake model ([4]; Subject 110): 0.01518 | Blood model value at t = 0 (Blood, meas) ([4]; Subject 208): 1,284.6 pg/I and 1,285 pg/I | A2 coefficient, blood elimination model ([4]; Subject 208): 385.1 micrograms per liter | A coefficient (first), blood elimination model ([4]; Subject 208): 899.5 micrograms per liter | Blood, 1st compartment half-life, elimination ([4]; Subject 208): 12.49 min | Blood model value at t = 240 ([4]; Subject 208): 1,181 pg/I | Blood, 1st compartment half-life, uptake ([4]; Subject 208): 24.65 min | k1 time constant, blood uptake model ([4]; Subject 208): 0.02812 | Blood model value at t = 0 (Blood, meas) ([4]; Subject 209): 1,641.0 pg/I and 1,641 pg/I | A2 coefficient, blood elimination model ([4]; Subject 209): 238.0 micrograms per liter | A coefficient (first), blood elimination model ([4]; Subject 209): 1403 micrograms per liter | Blood, 1st compartment half-life, elimination ([4]; Subject 209): 21.74 min | Blood model value at t = 240 ([4]; Subject 209): 1,608 pg/I | Blood, 1st compartment half-life, uptake ([4]; Subject 209): 47.12 min | k1 time constant, blood uptake model ([4]; Subject 209): 0.01471 | Uptake curve model plateau coefficient, blood ([4]; Subject 210, Figure 1A): 1132 micrograms per liter | Blood model value at t = 0 (Blood, meas) ([4]; Subject 210): 1,183 pg/I and 1,182.9 pg/I | A2 coefficient, blood elimination model ([4]; Subject 210): 264.4 micrograms per liter and 264 micrograms per liter | A coefficient (first), blood elimination model ([4]; Subject 210): 918.5 micrograms per liter and 918 micrograms per liter | Blood, 1st compartment half-life, elimination ([4]; Subject 210): 15.39 min | Blood model value at t = 240 ([4]; Subject 210): 1,128 pg/I | Blood, 1st compartment half-life, uptake ([4]; Subject 210): 28.85 min | k1 time constant, blood uptake model ([4]; Subject 210): 0.02403 | Relevant data range for blood samples [4, 5]: 100-1,600 pg/I
